In US20250154169A1, “COMPOUNDS AND METHODS FOR MODULATING SPLICING” (REMIX THERAPEUTICS INC., priority 2021, published 2025):
Like-named read-outs stand apart in the source and are kept apart here.

Columns and labels:
Format in all cases: cell-based, human
MYB mRNA = test: Splicing RT-qPCR assay, MYB canonical (CJ) and alternative (AJ) junction mRNA; conditions: Homo sapiens; for AC50: alternative junction mRNA, read-out: MYB AJ (AC50, increase in AJ mRNA)
Procedure, shortened: (§1)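 Canonical (CJ) and alternative-exon (AJ) junction mRNAs quantified by one-step RT-qPCR in cell lysates, normalized to housekeeping PPIA for A673 and GAPDH or GUSB for K562. Cells were exposed 24 h at 37 °C to 11-point 3-fold compound series from 10 uM final, with DMSO at or below 0.25%.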

HTT mRNA [1] = test: Splicing RT-qPCR gene panel, HTT canonical junction (CJ) mRNA; conditions: Homo sapiens, Tables 4A/4B, read-out: HTT (IC50, decrease in CJ mRNA, gene panel)
Procedure, shortened: (§2)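 Read-out: RT-qPCR of the canonical exon-exon junction transcript, ΔCt vs housekeeping gene, normalized to DMSO, RQ = 2^(−ΔΔCt), converted to percentage response. Cells, A673 or K562, were dosed 24 h at 37 °C across 11 3-fold dilutions from 10 uM.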

Target C mRNA = test: Splicing RT-qPCR gene panel, Target C canonical junction (CJ) mRNA; conditions: Homo sapiens, Tables 4A/4B, read-out: Target C (IC50, decrease in CJ mRNA, gene panel)
Procedure, shortened: as §2

SMN2 mRNA = test: Splicing RT-qPCR gene panel, SMN2 canonical junction (CJ) mRNA; conditions: Homo sapiens, Tables 4A/4B, read-out: SMN2 (IC50, decrease in CJ mRNA, gene panel)
Procedure, shortened: as §2

HTT mRNA [2] = test: Splicing RT-qPCR assay, HTT canonical (CJ) and alternative (AJ) junction mRNA; conditions: Homo sapiens, Table 3B; for AC50: alternative junction mRNA, read-out: HTT AJ (AC50, increase in AJ mRNA); for IC50: canonical junction mRNA, read-out: HTT CJ (IC50, decrease in CJ mRNA)
Procedure, shortened: as §1

[3] = Table 3B, canonical junction mRNA, RT-qPCR, read-out: MYB CJ (IC50, decrease in CJ mRNA)
[4] = Tables 4A/4B, canonical junction qPCR panel, read-out: MYB (IC50, decrease in CJ mRNA, gene panel)

Row | SMILES | IC50 (MYB mRNA; [3]) [µM] | IC50 (MYB mRNA; [4]) [µM] | IC50 (HTT mRNA [1]) [µM] | IC50 (Target C mRNA) [µM] | IC50 (SMN2 mRNA) [µM] | IC50 (HTT mRNA [2]) [µM] | AC50 (MYB mRNA; Table 3B, RT-qPCR) [µM] | AC50 (HTT mRNA [2]) [µM]
1 | CCn1cc2c(N3CCN(C)CC3)ncc(C(=O)Nc3cc(F)c4nc(C)cn4c3)c2n1 [Compound 954] | 0.1 to 1 | 0.1 to 1 | 1 to 10 | 1 to 10 | < 0.1 | 1 to 10 | 0.1 to 1 | 1 to 10
2 | Cc1cn2cc(NC(=O)c3ccc(N4CCNCC4)c4cc(CO)nn34)cc(F)c2n1 [Compound 955] | < 0.1 | < 0.1 | 0.1 to 1 | > 10 | < 0.1 | 0.1 to 1 | < 0.1 | 1 to 10
3 | CCNC1CCN(c2ccc(C(=O)Nc3cc(F)c4nc(C)cn4c3)n3nc(CO)cc23)C1 (stereo not drawn) [Compound 956] | < 0.1 | < 0.1 | < 0.1 | 0.1 to 1 | < 0.1 | < 0.1 | < 0.1 | 0.1 to 1
4 | Cc1cn2cc(NC(=O)c3ccc(N4CC[C@@H](NC5CC5)C4)c4nc(C)nn34)cc(F)c2n1 [Compound 958] | < 0.1 | < 0.1 | 0.1 to 1 | > 10 | < 0.1 | 0.1 to 1 | < 0.1 | 1 to 10
5 | CCNC1CCN(c2ccc(C(=O)Nc3cc(F)c4nc(C)cn4c3)n3nc(CC)cc23)C1 (stereo not drawn) [Compound 959] | < 0.1 | < 0.1 | 0.1 to 1 | 0.1 to 1 | < 0.1 | 0.1 to 1 | < 0.1 | 0.1 to 1
6 | CCc1cc2c(N3CCNCC3)ccc(C(=O)Nc3cc(F)c4nc(C)cn4c3)n2n1 [Compound 960] | 0.1 to 1 | 0.1 to 1 | 0.1 to 1 | 0.1 to 1 | < 0.1 | 0.1 to 1 | 0.1 to 1 | 0.1 to 1
7 | CCNC1CCN(c2ccc(C(=O)Nc3cc(F)c4nc(C)cn4c3)n3nc(C(C)O)cc23)C1 (stereo not drawn) [Compound 961] | < 0.1 | < 0.1 | 0.1 to 1 | 0.1 to 1 | < 0.1 | 0.1 to 1 | < 0.1 | 0.1 to 1
8 | Cc1cn2cc(NC(=O)c3ccc(N4CC[C@@H](NC5CC5)C4)n4cc(C)nc34)cc(F)c2n1 [Compound 965] | < 0.1 | < 0.1 | < 0.1 | 0.1 to 1 | < 0.1 | < 0.1 | < 0.1 | < 0.1
9 | Cc1cn2cc(NC(=O)c3cnc(N4CCC(NC5CC5)C4)c4cn(C)nc34)cc(F)c2n1 (stereo not drawn) [Compound 966] | < 0.1 | < 0.1 | < 0.1 | < 0.1 | < 0.1 | < 0.1 | < 0.1 | < 0.1
10 | CCn1cc2c(N3CCC(N)(CC)CC3)ncc(C(=O)Nc3cc(F)c4nc(C)cn4c3)c2n1 [Compound 969] | < 0.1 | < 0.1 | 1 to 10 | 1 to 10 | < 0.1 | 1 to 10 | < 0.1 | > 10
11 | Cc1cn2cc(NC(=O)c3ccc(N4CCC(NC5CC5)CC4)c4csnc34)cc(F)c2n1 [Compound 974] | < 0.1 | < 0.1 | 0.1 to 1 | 0.1 to 1 | < 0.1 | 0.1 to 1 | < 0.1 | 0.1 to 1

Second part, led by results:

Row | IC50 (MYB mRNA; [3]) [µM] | IC50 (MYB mRNA; [4]) [µM] | IC50 (HTT mRNA [1]) [µM] | IC50 (Target C mRNA) [µM] | IC50 (SMN2 mRNA) [µM] | IC50 (HTT mRNA [2]) [µM] | SMILES | AC50 (MYB mRNA; Table 3B, RT-qPCR) [µM] | AC50 (HTT mRNA [2]) [µM]
12 | < 0.1 | < 0.1 | 0.1 to 1 | > 10 | < 0.1 | 0.1 to 1 | CCn1cc2c(N3CCNCC3)ncc(C(=O)Nc3cc(F)c4nc(C)cn4c3)c2n1 [Compound 950] | 0.1 to 1 | 0.1 to 1
13 | 0.1 to 1 | 0.1 to 1 | 0.1 to 1 | 0.1 to 1 | < 0.1 | 0.1 to 1 | CCn1cc2c(N3C[C@@H](C)N[C@@H](C)C3)ncc(C(=O)Nc3cc(F)c4nc(C)cn4c3)c2n1 [Compound 952] | 0.1 to 1 | 0.1 to 1
14 | 0.1 to 1 | 0.1 to 1 | 1 to 10 | 1 to 10 | < 0.1 | 1 to 10 | CCn1cc2c(N3CCC(NC)C3)ncc(C(=O)Nc3cc(F)c4nc(C)cn4c3)c2n1 (stereo not drawn) [Compound 953] | 0.1 to 1 | 1 to 10
15 | 0.1 to 1 | 0.1 to 1 | 1 to 10 | > 10 | < 0.1 | 1 to 10 | Cc1cn2cc(NC(=O)c3ccc(N4CC[C@@H](NC5CC5)C4)c4cc(C)nn34)cc(F)c2n1 [Compound 963] | 0.1 to 1 | 1 to 10
16 | < 0.1 | < 0.1 | 0.1 to 1 | 1 to 10 | < 0.1 | 0.1 to 1 | COc1c(NC(=O)c2ccc(N3CC[C@@H](NC4CC4)C3)c3nc(C)nn23)cn2cc(C)nc2c1F [Compound 968] | 0.1 to 1 | 1 to 10
17 | < 0.1 | < 0.1 | 0.1 to 1 | 0.1 to 1 | < 0.1 | 0.1 to 1 | Cc1cn2cc(NC(=O)c3ccc(N4C[C@@H](C)N[C@@H](C)C4)c4csnc34)cc(F)c2n1 [Compound 971] | < 0.1 | 0.1 to 1
18 | < 0.1 | < 0.1 | 1 to 10 | 1 to 10 | < 0.1 | 1 to 10 | Cc1cn2cc(NC(=O)c3ccc(N4CC[C@@H](NC5CC5)C4)c4csnc34)cc(F)c2n1 [Compound 973] | < 0.1 | 1 to 10
19 | < 0.1 | < 0.1 | 0.1 to 1 | 1 to 10 | < 0.1 | 0.1 to 1 | Cc1cn2cc(NC(=O)c3c(F)cc(N4CC[C@@H](NC5CCC5)C4)c4csnc34)cc(F)c2n1 [Compound 976] | < 0.1 | 1 to 10
20 | < 0.1 | < 0.1 | 0.1 to 1 | 1 to 10 | < 0.1 | 0.1 to 1 | Cc1cn2cc(NC(=O)c3ccc(N4C[C@@H](C)N[C@@H](C)C4)c4nsnc34)cc(F)c2n1 [Compound 978] | < 0.1 | 0.1 to 1
21 | < 0.1 | < 0.1 | 0.1 to 1 | 1 to 10 | < 0.1 | 0.1 to 1 | Cc1cn2cc(NC(=O)c3ccc(N4CCC(N(C)C)CC4)c4csnc34)cc(F)c2n1 [Compound 979] | < 0.1 | 0.1 to 1
